Tests used:
MCT4 = MCT4 (Homo sapiens (Human), UniProt O15427); experiment: Assay 3: MCT4-mediated lactate transport in MDA-MB-231 breast cancer cells; format: cell-based; conditions: MDA-MB-231 cells; lactate transport
Procedure: (§1) 10 μL of a 30 mM DMSO stock of BCECF-AM ester (Life Technologies) is added and the cells are incubated at 37° C. for 5 min. The cells are pelleted (300 g, 5 min), washed once with 1 mL Tyrode's Solution, pH 7.4, re-pelleted (300 g, 5 min), and resuspended in 1 mL Tyrode's Solution, pH 7.4.
MCT4 activity may be assessed by monitoring the intracellular pH change that accompanies lactate/proton symport, using the pH-sensitive fluorescent dye 2′,7′-bis-(carboxyethyl)-5(6)-carboxyfluorescein (BCECF), in a manner similar to that previously reported for MCT1 and MCT4. The following is an exemplary procedure for assaying MCT4 activity of the compounds of Formula (I).

MCT1 = MCT1 (Homo sapiens (Human), UniProt P53985); experiment: Assay 4: MCT1-mediated lactate transport in BT20 breast cancer cells; format: cell-based; conditions: Table 27
MCT1, sequence (P53985 whole entry): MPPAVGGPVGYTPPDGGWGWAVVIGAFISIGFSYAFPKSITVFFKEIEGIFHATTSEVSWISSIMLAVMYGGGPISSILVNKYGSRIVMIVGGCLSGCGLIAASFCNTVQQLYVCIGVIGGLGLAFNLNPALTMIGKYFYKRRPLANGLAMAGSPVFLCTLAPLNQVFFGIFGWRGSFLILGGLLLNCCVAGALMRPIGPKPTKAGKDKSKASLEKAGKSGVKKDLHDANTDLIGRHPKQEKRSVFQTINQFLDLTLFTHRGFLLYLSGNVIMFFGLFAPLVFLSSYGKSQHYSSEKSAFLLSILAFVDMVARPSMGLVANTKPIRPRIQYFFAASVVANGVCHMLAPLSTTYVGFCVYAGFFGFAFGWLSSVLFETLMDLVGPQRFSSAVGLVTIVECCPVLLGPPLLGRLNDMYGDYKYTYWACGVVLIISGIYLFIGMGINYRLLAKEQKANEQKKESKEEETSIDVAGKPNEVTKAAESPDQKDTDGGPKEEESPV
MCT1, sequence (P35613 140-385 partner): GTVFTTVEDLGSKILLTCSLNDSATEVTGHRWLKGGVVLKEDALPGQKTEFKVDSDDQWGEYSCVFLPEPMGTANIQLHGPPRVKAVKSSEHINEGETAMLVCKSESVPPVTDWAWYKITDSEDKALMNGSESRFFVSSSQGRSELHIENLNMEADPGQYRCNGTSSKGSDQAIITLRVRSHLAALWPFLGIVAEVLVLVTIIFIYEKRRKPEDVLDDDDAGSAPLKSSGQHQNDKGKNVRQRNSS
Procedure: as §1
Assay 4: MCT1-Mediated Lactate Transport in BT20 Breast Cancer Cells.
Preparation of BCECF loaded cells are as described for Assay 1. Lactate transport assay is as described for Assay 1, except 10 mM L-lactate (rather than 50 mM) is added.

MCT4, sequence (O15427 whole entry, looked up): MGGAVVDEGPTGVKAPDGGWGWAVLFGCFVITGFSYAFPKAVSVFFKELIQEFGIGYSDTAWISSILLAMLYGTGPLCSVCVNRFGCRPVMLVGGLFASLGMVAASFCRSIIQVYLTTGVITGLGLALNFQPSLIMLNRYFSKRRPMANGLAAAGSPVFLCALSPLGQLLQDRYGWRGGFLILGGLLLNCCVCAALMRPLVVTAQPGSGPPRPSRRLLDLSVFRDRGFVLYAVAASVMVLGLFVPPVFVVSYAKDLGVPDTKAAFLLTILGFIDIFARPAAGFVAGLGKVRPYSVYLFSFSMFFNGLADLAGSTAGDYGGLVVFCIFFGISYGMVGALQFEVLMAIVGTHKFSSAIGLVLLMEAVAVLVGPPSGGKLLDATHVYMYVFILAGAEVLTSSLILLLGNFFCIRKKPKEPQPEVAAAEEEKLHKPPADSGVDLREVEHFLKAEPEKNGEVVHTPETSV
MCT4, sequence (P35613 whole entry partner, looked up): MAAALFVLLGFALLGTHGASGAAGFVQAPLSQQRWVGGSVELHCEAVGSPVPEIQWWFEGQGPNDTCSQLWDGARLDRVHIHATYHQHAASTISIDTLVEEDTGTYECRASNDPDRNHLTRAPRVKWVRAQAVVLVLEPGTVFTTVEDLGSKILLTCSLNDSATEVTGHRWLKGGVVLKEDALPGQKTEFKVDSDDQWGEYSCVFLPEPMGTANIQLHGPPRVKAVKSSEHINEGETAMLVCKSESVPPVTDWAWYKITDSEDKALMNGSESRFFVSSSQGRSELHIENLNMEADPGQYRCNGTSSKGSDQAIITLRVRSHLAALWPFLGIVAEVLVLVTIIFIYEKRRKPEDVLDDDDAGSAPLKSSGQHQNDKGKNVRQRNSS

2-((1-[(2-Chlorophenyl)methyl]-5-(4-cyclopropoxythien-2-yl)-1H-pyrazol-3-yl(methoxy)-2-methylpropanoic acid [Example 130]
IC50 (MCT4): 98 nM | IC50 (MCT1): 55 nM

CC(C)COc1cccc(-c2cc(COC(C)(C)C(=O)O)nn2-c2ccccc2Cl)c1 [Example 101, 2-([1-(2-Chlorophenyl)-5-[3-(2-methyl-propoxy)phenyl]-1H-pyrazol-3-yl)methoxy)-2-methylpropanoic acid]
IC50 (MCT4): 3.4 nM | IC50 (MCT1): 12000 nM

COc1ccccc1-n1nc(COC(C)(C)C(=O)O)cc1-c1cccc(OCC(C)C)c1 [Example 102, 2-([1-(2-Methoxyphenyl)-5-[3-(2-methylpropoxy)phenyl]-1H-pyrazol-3-yl]methoxy)-2-methylpropanoic acid]
IC50 (MCT4): 15 nM | IC50 (MCT1): 42000 nM

CC(C)COc1cccc(-c2cc(COC(C)(C)C(=O)O)nn2-c2ccccc2N(C)C)c1 [Example 103, 2-([1-[2-(Dimethylamino)phenyl]-5-[3-(2-methylpropoxy)phenyl]-1H-pyrazol-3-yl]methoxy)-2-methylpropanoic acid]
IC50 (MCT4): 2.6 nM | IC50 (MCT1): 28000 nM

CC(C)COc1cccc(-c2cc(COC(C)(C)C(=O)O)nn2-c2ccccc2)c1 [Example 104, 2-methyl-2-([5-[3-(2-methylpropoxy)phenyl]-1-phenyl-1H-pyrazol-3-yl]methoxy)propanoic acid]
IC50 (MCT4): 20 nM | IC50 (MCT1): 12000 nM

Cc1ccccc1-n1nc(COC(C)(C)C(=O)O)cc1-c1cccc(OCC(C)C)c1 [Example 105, 2-Methyl-2-([1-(2-methylphenyl)-5-[3-(2-methylpropoxy)phenyl]-1H-pyrazol-3-yl]methoxy]propanoic acid]
IC50 (MCT4): 7.6 nM | IC50 (MCT1): 15000 nM

CC(C)COc1cccc(-c2cc(COC(C)(C)C(=O)O)nn2-c2ccccc2F)c1 [Example 106, 2-([1-(2-fluorophenyl)-5-[3-(2-methyl-propoxy)phenyl]-1H-pyrazol-3-yl)methoxy)-2-methylpropanoic acid]
IC50 (MCT4): 12 nM | IC50 (MCT1): 21000 nM

CC(C)COc1cccc(-c2cc(COC(C)(C)C(=O)O)nn2Cc2ccc(N(C)C)cc2)c1 [Example 107, 2-[(1-[[4-(Dimethylamino)phenyl]methyl]-5-[3-(2-methylpropoxy)phenyl]-1H-pyrazol-3-yl)methoxy)-2-methylpropanoic acid]
IC50 (MCT4): 170 nM | IC50 (MCT1): 9900 nM

CC(C)COc1cccc(-c2cc(COC(C)(C)C(=O)O)nn2Cc2cccc(N(C)C)c2)c1 [Example 108, 2-[(1-[[3-(Dimethylamino)phenyl]-methyl]-5-[3-(2-methylpropoxy)phenyl]-1H-pyrazol-3-yl)methoxy)-2-methylpropanoic acid]
IC50 (MCT4): 36 nM | IC50 (MCT1): 5200 nM

CC(C)COc1cccc(-c2cc(COC(C)(C)C(=O)O)nn2Cc2ccccc2N(C)C)c1 [Example 109, 2-[(1-[[2-(Dimethylamino)phenyl]-methyl]-5-[3-(2-methylpropoxy)phenyl]-1H-pyrazol-3-yl)methoxy)-2-methylpropanoic acid]
IC50 (MCT4): 2.1 nM | IC50 (MCT1): > 11000 nM

COc1ccccc1Cn1nc(COC(C)(C)C(=O)O)cc1-c1cccc(OC2CC2)c1 [Example 111, 2-([5-(3-Cyclopropoxyphenyl)-1-[(2-methoxyphenyl)methyl]-1H-pyrazol-3-yl)methoxy)-2-methylpropanoic acid]
IC50 (MCT4): 7.9 nM | IC50 (MCT1): 32000 nM

COc1ccccc1-n1nc(COC(C)(C)C(=O)O)cc1-c1cccc(OC2CC2)c1 [Example 112, 2-([5-(3-cyclopropoxyphenyl)-1-(2-methoxyphenyl)-1H-pyrazol-3-yl]methoxy)-2-methylpropanoic acid]
IC50 (MCT4): 29 nM | IC50 (MCT1): 94000 nM

COc1ccccc1-n1nc(COC(C)(C)C(=O)O)cc1-c1cccc(OC(C)C)c1 [Example 113, 2-([1-(2-Methoxyphenyl)-5-[3-(propan-2-yloxy)phenyl]-1H-pyrazol-3-yl]methoxy)-2-methylpropanoic acid]
IC50 (MCT4): 6.7 nM | IC50 (MCT1): 33000 nM

CN(C)c1ccccc1-n1nc(COC(C)(C)C(=O)O)cc1-c1cccc(OC2CC2)c1 [Example 114, 2-([5-(3-cyclopropoxyphenyl)-1-[2-(dimethylamino)phenyl]-1H-pyrazol-3-yl]methoxy)-2-methylpropanoic acid]
IC50 (MCT4): 4.3 nM | IC50 (MCT1): 73000 nM

COc1cccc(-c2cc(COC(C)(C)C(=O)O)nn2-c2cccnc2)c1 [Example 115, 2-([5-(3-Methoxyphenyl)-1-(pyridin-3-yl)-1H-pyrazol-3-yl]methoxy)-2-methylpropanoic acid]
IC50 (MCT1): > 100000 nM

COc1cccc(-c2cc(COC(C)(C)C(=O)O)nn2-c2ccccc2F)c1 [Example 117, 2-([1-(2-Fluorophenyl)-5-(3-methoxyphenyl)-1H-pyrazol-3-yl]methoxy)-2-methylpropanoic acid]
IC50 (MCT1): > 100000 nM

COc1cccc(-c2cc(COC(C)(C)C(=O)O)nn2-c2ccccc2C)c1 [Example 118, 2-([5-(3-methoxyphenyl)-1-(2-methylphenyl)-1H-pyrazol-3-yl]methoxy)-2-methylpropanoic acid]
IC50 (MCT1): 50000 nM

COc1cccc(-c2cc(COC(C)(C)C(=O)O)nn2-c2ccccc2OC)c1 [Example 119, 22-([1-(2-Methoxyphenyl)-5-(3-methoxyphenyl)-1H-pyrazol-3-yl]methoxy)-2-methylpropanoic acid]
IC50 (MCT1): 65000 nM

CC[C@H](OCc1cc(-c2cccc(OC)c2)n(Cc2ccccc2Cl)n1)C(=O)O [Example 122, (2S)-2-([1-[(2-Chlorophenyl)methyl]-5-(3-methoxyphenyl)-1H-pyrazol-3-yl]methoxy)-butanoic acid]
IC50 (MCT4): 50 nM | IC50 (MCT1): 2500 nM

CC[C@@H](OCc1cc(-c2cccc(OC)c2)n(Cc2ccccc2Cl)n1)C(=O)O [Example 123]
IC50 (MCT4): 1500 nM | IC50 (MCT1): 11000 nM

COc1cccc(-c2cc(CO[C@@H](C)C(=O)O)nn2Cc2ccccc2Cl)c1 [Example 124, (2S)-2-([1-[(2-Chlorophenyl)methyl]-5-(3-methoxyphenyl)-1H-pyrazol-3-yl]methoxy)-propanoic acid]
IC50 (MCT4): 420 nM | IC50 (MCT1): 31000 nM

COc1cccc(-c2cc(CO[C@H](C)C(=O)O)nn2Cc2ccccc2Cl)c1 [Example 125, (2R)-2-([1-[(2-Chlorophenyl)methyl]-5-(3-methoxyphenyl)-1H-pyrazol-3-yl]methoxy)-propanoic acid]
IC50 (MCT4): 5900 nM

COc1ccccc1-c1cc(COC(C)(C)C(=O)O)nn1Cc1ccccc1Cl [Example 126]
IC50 (MCT4): 130 nM | IC50 (MCT1): 35000 nM

COc1ccc(-c2cc(COC(C)(C)C(=O)O)nn2Cc2ccccc2Cl)cc1 [Example 127, 2-([1-[(2-Chlorophenyl)methyl]-5-(4-methoxyphenyl)-1H-pyrazol-3-yl]methoxy)-2-methylpropanoic acid]
IC50 (MCT4): 41 nM | IC50 (MCT1): 15000 nM

CC(C)COc1ccc(-c2cc(COC(C)(C)C(=O)O)nn2Cc2ccccc2Cl)s1 [Example 128, 2-([1-[(2-Chlorophenyl)methyl]-5-[5-(2-methylpropoxy)thien-2-yl]-1H-pyrazol-3-yl]methoxy)-2-methylpropanoic acid]
IC50 (MCT4): 1.2 nM | IC50 (MCT1): > 11000 nM

CC(C)Oc1ccc(-c2cc(COC(C)(C)C(=O)O)nn2Cc2ccccc2Cl)s1 [Example 129, 2-([1-[(2-Chlorophenyl)methyl]-5-[5-(propan-2-yloxy)thien-2-yl]-1H-pyrazol-3-yl]methoxy)-2-methylpropanoic acid]
IC50 (MCT4): 2.8 nM | IC50 (MCT1): 16000 nM

CC(C)(OCc1cc(-c2ccc(OC3CC3)s2)n(Cc2ccccc2Cl)n1)C(=O)O [Example 131, 2-([1-[(2-Chlorophenyl)methyl]-5-(5-cyclopropoxythien-2-yl)-1H-pyrazol-3-yl]methoxy)-2-methylpropanoic acid]
IC50 (MCT4): 225 nM | IC50 (MCT1): 650 nM

COc1cccc(OC)c1Cn1nc(COC(C)(C)C(=O)O)cc1-c1cccc(OCC(C)C)c1 [Example 135, 2-([1-[(2,6-Dimethoxyphenyl)methyl]-5-[3-(2-methylpropoxy)phenyl] 1H-pyrazol-3-yl]methoxy)-2-methylpropanoic acid]
IC50 (MCT4): 53 nM | IC50 (MCT1): 220 nM

COc1cccc(-c2cc(COC(C)(C)C(=O)O)nn2Cc2c(F)cccc2N(C)C)c1 [Example 136, 2-[(1-[(2-(Dimethylamino)-6-fluoro-phenyl]methyl]-5-(3-methoxyphenyl)-1H-pyrazol-3-yl)methoxy)-2-methylpropanoic acid]
IC50 (MCT1): > 33000 nM

COc1cc(OC)cc(-c2cc(COC(C)(C)C(=O)O)nn2-c2cccc(Cl)c2)c1 [Example 241, 2-([5-(3,5-Dimethoxyphenyl)-1-(3-chlorophenyl)-1H-pyrazol-3-yl]methoxy)-2-methylpropanoic acid]
IC50 (MCT1): 8500 nM

COc1cc(OC)cc(-c2cc(COC(C)(C)C(=O)O)nn2-c2cccc(OC)c2)c1 [Example 242, 2-([5-(3,5-Dimethoxyphenyl)-1-(3-methoxyphenyl)-1H-pyrazol-3-yl]methoxy)-2-methylpropanoic acid]
IC50 (MCT1): 57000 nM

Cn1cnc2ccc(-c3cc(COC(C)(C)C(=O)O)nn3Cc3ccccc3Cl)cc21 [Example 248, 2-([1-[(2-Chlorophenyl)methyl]-5-(1-methyl-1H-1,3-benzodiazol-6-yl)-1H-pyrazol-3-yl]methoxy)-2-methylpropanoic acid]
IC50 (MCT1): > 100000 nM

Cc1nn(C)c2c(-n3nc(COC(C)(C)C(=O)O)cc3-c3cccc(OCC(C)(C)C)c3)cccc12 [Example 255]
IC50 (MCT1): 7300 nM

Reference: patent publication US10214492B2, “Heterocyclic inhibitors of MCT4” (Vettore, LLC, priority 2016, dated 2019)
